Where two headings read alike, the source gives them in different places.
Biological target: T1, human B-Raf (Homo sapiens, UniProt P15056)
T1 construct: Flag; GST; made in house; host or cells: Sf9 insect cells (B-Raf); E. coli (MEK1-GST)
Assay: B-Raf Kinase to MEK1 ELISA
Assay type: biochemical
Conditions: for inhibition at 10 µM: read-out: % Inhib./10 uM
How it was run: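 Flag/GST-tagged human B-Raf (Sf9, ~20 ng/point) phosphorylates non-active GST-MEK1 (50 nM final) with ATP and MgCl2 in MOPS pH 7.2 buffer, 60 min at RT. Product is captured on anti-GST plates; MEK1 pSer217/221 is read by phospho-antibody plus europium conjugate (DELFIA).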

[1] = median, cpd concentrations from 10 μM to 30 nM in half log dilutions, read-out: Median IC50

T1 sequence (P15056 whole entry): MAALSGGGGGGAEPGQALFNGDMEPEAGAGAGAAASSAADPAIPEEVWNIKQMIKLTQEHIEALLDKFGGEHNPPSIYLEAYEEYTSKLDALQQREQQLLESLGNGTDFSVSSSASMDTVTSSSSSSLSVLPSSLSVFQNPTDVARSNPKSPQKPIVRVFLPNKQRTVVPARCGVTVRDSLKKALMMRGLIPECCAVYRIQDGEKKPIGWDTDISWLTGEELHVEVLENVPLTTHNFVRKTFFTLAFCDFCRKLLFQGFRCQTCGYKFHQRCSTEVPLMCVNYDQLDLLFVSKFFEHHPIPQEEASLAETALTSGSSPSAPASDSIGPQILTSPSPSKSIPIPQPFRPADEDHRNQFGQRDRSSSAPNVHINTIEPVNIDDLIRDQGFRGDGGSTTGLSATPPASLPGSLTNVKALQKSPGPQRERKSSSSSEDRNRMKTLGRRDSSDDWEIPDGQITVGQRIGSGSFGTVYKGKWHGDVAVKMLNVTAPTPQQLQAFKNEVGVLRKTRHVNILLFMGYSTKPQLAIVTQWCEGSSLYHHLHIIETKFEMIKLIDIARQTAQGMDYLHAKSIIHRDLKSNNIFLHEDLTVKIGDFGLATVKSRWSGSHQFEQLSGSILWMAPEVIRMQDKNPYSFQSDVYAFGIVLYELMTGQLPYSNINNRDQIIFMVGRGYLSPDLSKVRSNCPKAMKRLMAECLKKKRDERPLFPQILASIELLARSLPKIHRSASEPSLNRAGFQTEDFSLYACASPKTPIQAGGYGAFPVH

SMILES	IC50	inhibition at 10 µM	IC50 [1]
Cc1ccc(C(=O)Nc2cccc(-c3ccnc4c(-c5ccc(N)cc5)cnn34)c2)cc1C(F)(F)F [Example 180, N-{3-[3-(4-aminophenyl)pyrazolo[1,5-a]pyrimidin-7-yl]phenyl}-4-methyl-3-(trifluoromethyl)benzamide]	180 nM	95%	–
Cc1ccc(C(=O)Nc2cccc(-c3ccnc4c(-c5cccc(O)c5)cnn34)c2)cc1C(F)(F)F [Example 181, N-{3-[3-(3-hydroxyphenyl)pyrazolo[1,5-a]pyrimidin-7-yl]phenyl}-4-methyl-3-(trifluoromethyl)benzamide]	290 nM	87%	–
Cc1ccc(C(=O)Nc2cccc(-c3ccnc4c(-c5cccc(C#N)c5)cnn34)c2)cc1C(F)(F)F [Example 182, N-{3-[3-(3-cyanophenyl)pyrazolo[1,5-a]pyrimidin-7-yl]phenyl}-4-methyl-3-(trifluoromethyl)benzamide]	–	29%	> 10000 nM
Cc1ccc(C(=O)Nc2cccc(-c3ccnc4c(-c5cccc(C(=O)N(C)C)c5)cnn34)c2)cc1C(F)(F)F [Example 183, N-[3-(3-{3-[(dimethylamino)carbonyl]phenyl}pyrazolo[1,5-a]pyrimidin-7-yl)phenyl]-4-methyl-3-(trifluoromethyl)benzamide]	270 nM	84%	–
CC(=O)Nc1ccc(-c2cnn3c(-c4cccc(NC(=O)c5ccc(C)c(C(F)(F)F)c5)c4)ccnc23)cc1 [Example 184, N-(3-{3-[4-(acetylamino)phenyl]pyrazolo[1,5-a]pyrimidin-7-yl}phenyl)-4-methyl-3-(trifluoromethyl)benzamide]	200 nM	89%	–
CCOC(=O)c1cc2nccc(-c3cccc(NC(=O)c4cccc(C(F)(F)F)c4)c3)n2n1 [Example 185, ethyl 7-(3-{[3-(trifluoromethyl)benzoyl]amino}phenyl)pyrazolo[1,5-a]pyrimidine-2-carboxylate]	–	6%	> 10000 nM
CN(C)c1cc2nccc(-c3cccc(NC(=O)c4cccc(C(F)(F)F)c4)c3)n2n1 [Example 187, N-{3-[2-(dimethylamino)pyrazolo[1,5-a]pyrimidin-7-yl]phenyl}-3-(trifluoromethyl)benzamide]	–	31%	> 10000 nM
Cc1ccc(C(=O)Nc2cccc(-c3ccnc4c(-c5ccncc5)cnn34)c2)cc1C(F)(F)F [Example 188, 4-methyl-N-[3-(3-pyridin-4-ylpyrazolo[1,5-a]pyrimidin-7-yl)phenyl]-3-(trifluoromethyl)benzamide]	300 nM	86%	–
COc1ccc(C(=O)Nc2cccc(-c3ccnc4c(-c5ccncc5)cnn34)c2)cc1C(F)(F)F [Example 189, 4-methoxy-N-[3-(3-pyridin-4-ylpyrazolo[1,5-a]pyrimidin-7-yl)phenyl]-3-(trifluoromethyl)benzamide]	360 nM	83%	–
O=C(Nc1cccc(-c2ccnc3c(-c4ccncc4)cnn23)c1)c1ccc(F)c(C(F)(F)F)c1 [Example 190, 4-fluoro-N-[3-(3-pyridin-4-ylpyrazolo[1,5-a]pyrimidin-7-yl)phenyl]-3-(trifluoromethyl)benzamide]	–	68%	940 nM
O=C(Nc1cccc(-c2ccnc3c(-c4ccncc4)cnn23)c1)c1ccc(Cl)c(C(F)(F)F)c1 [Example 191, 4-chloro-N-[3-(3-pyridin-4-ylpyrazolo[1,5-a]pyrimidin-7-yl)phenyl]-3-(trifluoromethyl)benzamide]	–	60%	1920 nM
O=C(Nc1cccc(-c2ccnc3c(-c4ccncc4)cnn23)c1)Nc1cccc(C(F)(F)F)c1 [Example 192, N-[3-(3-pyridin-4-ylpyrazolo[1,5-a]pyrimidin-7-yl)phenyl]-N′-[3-(trifluoromethyl)phenyl]urea]	–	72%	1300 nM

Results, then the molecule that gave them:

IC50	inhibition at 10 µM	IC50 [1]	SMILES
–	79%	500 nM	O=C(Nc1cccc(-c2ccnc3c(-c4ccncc4)cnn23)c1)Nc1ccc(F)c(C(F)(F)F)c1 [Example 193, N-[4-fluoro-3-(trifluoromethyl)phenyl]-N′-[3-(3-pyridin-4-ylpyrazolo[1,5-a]pyrimidin-7-yl)phenyl]urea]
–	96%	110 nM	Cc1ccc(C(=O)Nc2cccc(-c3ccnc4cc(N5CCOCC5)nn34)c2)cc1C(F)(F)F [Example 194, 4-methyl-N-[3-(2-morpholin-4-ylpyrazolo[1,5-a]pyrimidin-7-yl)phenyl]-3-(trifluoromethyl)benzamide]
–	93%	220 nM	COc1ccc(C(=O)Nc2cccc(-c3ccnc4cc(N5CCOCC5)nn34)c2)cc1C(F)(F)F [Example 195, 4-methoxy-N-[3-(2-morpholin-4-ylpyrazolo[1,5-a]pyrimidin-7-yl)phenyl]-3-(trifluoromethyl)benzamide]
–	96%	90 nM	O=C(Nc1cccc(-c2ccnc3cc(N4CCOCC4)nn23)c1)c1ccc(F)c(C(F)(F)F)c1 [Example 196, 4-fluoro-N-[3-(2-morpholin-4-ylpyrazolo[1,5-a]pyrimidin-7-yl)phenyl]-3-(trifluoromethyl)benzamide]
–	91%	200 nM	O=C(Nc1cccc(-c2ccnc3cc(N4CCOCC4)nn23)c1)c1ccc(Cl)c(C(F)(F)F)c1 [Example 197, 4-chloro-N-[3-(2-morpholin-4-ylpyrazolo[1,5-a]pyrimidin-7-yl)phenyl]-3-(trifluoromethyl)benzamide]
–	56%	1900 nM	O=C(Nc1cccc(-c2ccnc3cc(N4CCOCC4)nn23)c1)c1ccc(Cl)c(Cl)c1 [Example 198, 3,4-dichloro-N-[3-(2-morpholin-4-ylpyrazolo[1,5-a]pyrimidin-7-yl)phenyl]benzamide]
–	96%	120 nM	O=C(Nc1cccc(-c2ccnc3cc(N4CCOCC4)nn23)c1)Nc1cccc(C(F)(F)F)c1 [Example 199, N-[3-(2-morpholin-4-ylpyrazolo[1,5-a]pyrimidin-7-yl)phenyl]-N′-[3-(trifluoromethyl)phenyl]urea]
–	94%	200 nM	O=C(Nc1cccc(-c2ccnc3cc(N4CCOCC4)nn23)c1)Nc1ccc(Cl)c(C(F)(F)F)c1 [Example 200, N-[4-chloro-3-(trifluoromethyl)phenyl]-N′-[3-(2-morpholin-4-ylpyrazolo[1,5-a]pyrimidin-7-yl)phenyl]urea]
–	96%	100 nM	O=C(Nc1cccc(-c2ccnc3cc(N4CCOCC4)nn23)c1)Nc1ccc(Cl)c(Cl)c1 [Example 201, N-(3,4-dichlorophenyl)-N′-[3-(2-morpholin-4-ylpyrazolo[1,5-a]pyrimidin-7-yl)phenyl]urea]
–	96%	120 nM	O=C(Nc1cccc(-c2ccnc3cc(N4CCOCC4)nn23)c1)Nc1ccc(F)c(C(F)(F)F)c1 [Example 202, N-[4-fluoro-3-(trifluoromethyl)phenyl]-N′-[3-(2-morpholin-4-ylpyrazolo[1,5-a]pyrimidin-7-yl)phenyl]urea]
> 10000 nM	16%	–	CN1CCN(c2cc3nccc(-c4cccc(NC(=O)c5cccc(C(F)(F)F)c5)c4)n3n2)CC1 [Example 203, N-{3-[2-(4-methylpiperazin-1-yl)pyrazolo[1,5-a]pyrimidin-7-yl]phenyl}-3-(trifluoromethyl)benzamide]
